Source: ChEMBL document CHEMBL1121821, “Pyrimidine acyclic nucleosides. 5-Substituted 1-[(2-aminoethoxy)methyl]uracils as candidate antivirals” (J Med Chem, 1981)
The source made the active and inactive calls. No cut-off for these calls is given here.

How the values were obtained:
[1] = test system: Thymidine kinase (Human alphaherpesvirus 1); experiment: Compound was tested for affinity against HSV-1 thymidine kinase; Low activity
Vaccinia virus = experiment: Compound was tested for antiviral activity against vaccinia virus; little or no activity; assay type: functional, organism-based; settings: Orthopoxvirus vaccinia
L cells = experiment: Cytotoxic activity against Detroit 98 or mouse L cell culture at 10E-4 M concentration; No significant activity; assay type: functional, cell-based; settings: L929
Human alphaherpesvirus 1 = experiment: Compound was tested for plaque-inhibition against HSV-1 in cell culture at 50 ug per disk; Inactive; assay type: functional, organism-based
Human adenovirus 5 = experiment: Compound was tested for antiviral activity against adenovirus type 5; little or no activity; assay type: functional, organism-based
[2] = test system: Thymidine kinase (Human alphaherpesvirus 1); experiment: Compound was tested for affinity against HSV-1 Thymidine kinase; Low activity

## NCCOCn1cc(Br)c(=O)[nH]c1=O
[1]
  Activity: Low activity
Vaccinia virus
  Activity: Little or no activity
L cells
  Cytotoxicity: inactive
Human alphaherpesvirus 1
  Activity: inactive
Human adenovirus 5
  Activity: Little or no activity

## Cc1cn(COCCN)c(=O)[nH]c1=O
[1]
  Activity: Low activity
Vaccinia virus
  Activity: Little or no activity
L cells
  Cytotoxicity: inactive
Human alphaherpesvirus 1
  Activity: inactive
Human adenovirus 5
  Activity: Little or no activity

## NCCOCn1cc(Cl)c(=O)[nH]c1=O
Vaccinia virus
  Activity: Little or no activity
L cells
  Cytotoxicity: inactive
Human alphaherpesvirus 1
  Activity: inactive
Human adenovirus 5
  Activity: Little or no activity
[2]
  Activity: Low activity

## NCCOCn1cc(I)c(=O)[nH]c1=O
Vaccinia virus
  Activity: Little or no activity
L cells
  Cytotoxicity: inactive
Human alphaherpesvirus 1
  Activity: inactive
Human adenovirus 5
  Activity: Little or no activity
[2]
  Activity: Low activity

## NCCOCn1ccc(=O)[nH]c1=O
[1]
  Activity: Low activity
Vaccinia virus
  Activity: Little or no activity
L cells
  Cytotoxicity: inactive
Human alphaherpesvirus 1
  Activity: inactive
Human adenovirus 5
  Activity: Little or no activity
